Reference: the NIST ThermoML archive (doi:10.1016/j.fluid.2014.11.020)
Numbers after ± are expanded uncertainties.

Experiment: activity coefficient (dimensionless); of the first substance listed, at infinite dilution; xn = mol fraction of the nth substance listed
Conditions: Liquid, Chromatography, x1 = 0

Row | Compound | activity coefficient (323.15 K) | activity coefficient (333.15 K) | activity coefficient (343.15 K)
1 | Cc1ccccc1C [1,2-dimethylbenzene] + CCCOC[n+]1ccc(N(C)C)cc1.O=S(=O)([N-]S(=O)(=O)C(F)(F)F)C(F)(F)F | 1.24 ± 0.08 | 1.31 ± 0.09 | 1.33 ± 0.09
2 | CCC(=O)CC [pentan-3-one] + Cn1cc[n+](COCCCOC[n+]2ccn(C)c2)c1.N#C[N-]C#N.N#C[N-]C#N | 3.39 ± 0.23 | 3.49 ± 0.24 | 3.46 ± 0.24
3 | C#CCCCCC [1-heptyne] + CCCOC[n+]1ccn(Cc2ccccc2)c1.F[B-](F)(F)F | 8.53 ± 0.58 | 8.35 ± 0.57 | 8.28 ± 0.56
4 | CCC(C)CC [3-methylpentane] + CCCCCCCCn1cc[n+](COCCCOC[n+]2ccn(CCCCCCCC)c2C)c1C.N#C[N-]C#N.N#C[N-]C#N | 3.48 ± 0.24 |  | 
5 | Cc1ccccc1 [toluene] + CCCOC[n+]1ccn(C)c1.N#C[N-]C#N | 3.6 ± 0.25 | 3.65 ± 0.25 | 3.77 ± 0.26
6 | ClC(Cl)(Cl)Cl [tetrachloromethane] + CCCOC[n+]1ccn(Cc2ccccc2)c1.F[B-](F)(F)F | 5.01 ± 0.34 | 4.71 ± 0.32 | 4.58 ± 0.31
7 | c1ccsc1 [thiophene] + Cn1cc[n+](COCCCOC[n+]2ccn(C)c2)c1.N#C[N-]C#N.N#C[N-]C#N | 1.58 ± 0.1 | 1.63 ± 0.11 | 1.68 ± 0.11
8 | CCCCCCCCCC [decane] + CCCOC[n+]1ccn(C)c1.O=S(=O)([N-]S(=O)(=O)C(F)(F)F)C(F)(F)F | 69.6 ± 4.8 | 60.5 ± 4.2 | 53 ± 3.6
9 | Cc1cccc(C)c1 [1,3-dimethylbenzene] + CCCOC[n+]1ccn(C)c1.N#C[N-]C#N | 6.24 ± 0.43 | 6.24 ± 0.43 | 6.41 ± 0.44
10 | c1ccncc1 [pyridine] + CCCOC[n+]1ccn(Cc2ccccc2)c1.N#C[N-]C#N | 0.67 ± 0.05 | 0.69 ± 0.05 | 0.71 ± 0.05
11 | c1ccccc1 [benzene] + CCCOC[n+]1ccn(C)c1.N#C[N-]C#N | 2.25 ± 0.15 | 2.27 ± 0.15 | 2.29 ± 0.16
12 | CCCCCCCCCCC [undecane] + CN(C)c1cc[n+](COCCCOC[n+]2ccc(N(C)C)cc2)cc1.O=S(=O)([N-]S(=O)(=O)C(F)(F)F)C(F)(F)F.O=S(=O)([N-]S(=O)(=O)C(F)(F)F)C(F)(F)F | 114 ± 7.8 | 99 ± 6.8 | 88.6 ± 6.1
13 | Cc1ccccc1 [toluene] + CCCOC[n+]1ccc(N(C)C)cc1.O=S(=O)([N-]S(=O)(=O)C(F)(F)F)C(F)(F)F | 0.99 ± 0.06 | 1.04 ± 0.07 | 1.05 ± 0.07
14 | CCCCCCCCCC [decane] + CCCOC[n+]1ccn(Cc2ccccc2)c1.N#C[N-]C#N | 144 ± 9.9 | 123 ± 8.4 | 105 ± 7.2
15 | CCCCCCCCCCCCCC [tetradecane] + CCCOC[n+]1ccn(C)c1.F[B-](F)(F)F | 2700 ± 190 | 2500 ± 170 | 2300 ± 160
16 | CC#N [acetonitrile] + CCCOC[n+]1ccn(C)c1.F[B-](F)(F)F | 0.73 ± 0.05 | 0.74 ± 0.05 | 0.75 ± 0.05
17 | CCCCO [butan-1-ol] + CCCOC[n+]1ccn(Cc2ccccc2)c1.F[B-](F)(F)F | 3 ± 0.2 | 2.59 ± 0.18 | 2.39 ± 0.16
18 | C1CCCCCC1 [cycloheptane] + CCCOC[n+]1ccn(C)c1.N#C[N-]C#N | 79.2 ± 5.4 | 105 ± 7.2 | 133 ± 9.1
19 | CCC(C)=O [butanone] + CCCCCCCCn1cc[n+](COCCCOC[n+]2ccn(CCCCCCCC)c2C)c1C.O=S(=O)([N-]S(=O)(=O)C(F)(F)F)C(F)(F)F.O=S(=O)([N-]S(=O)(=O)C(F)(F)F)C(F)(F)F | 0.21 ± 0.03 | 0.19 ± 0.03 | 0.18 ± 0.03
20 | Cc1cccc(C)c1 [1,3-dimethylbenzene] + CCCOC[n+]1ccn(C)c1.O=S(=O)([N-]S(=O)(=O)C(F)(F)F)C(F)(F)F | 2.59 ± 0.18 | 2.54 ± 0.17 | 2.54 ± 0.17
21 | CC(C)CO [2-methyl-1-propanol] + CCCCCCCCn1cc[n+](COCCC)c1C.O=S(=O)([N-]S(=O)(=O)C(F)(F)F)C(F)(F)F | 1.21 ± 0.08 | 1.09 ± 0.07 | 1.03 ± 0.06
22 | CCCCCCCCCCC [undecane] + Cn1cc[n+](COCCCOC[n+]2ccn(C)c2)c1.O=S(=O)([N-]S(=O)(=O)C(F)(F)F)C(F)(F)F.O=S(=O)([N-]S(=O)(=O)C(F)(F)F)C(F)(F)F | 193 ± 13 | 191 ± 13 | 162 ± 11
23 | CCO [ethanol] + CCCCCCCCn1cc[n+](COCCCOC[n+]2ccn(CCCCCCCC)c2C)c1C.O=S(=O)([N-]S(=O)(=O)C(F)(F)F)C(F)(F)F.O=S(=O)([N-]S(=O)(=O)C(F)(F)F)C(F)(F)F | 0.64 ± 0.04 | 0.58 ± 0.04 | 0.55 ± 0.04

Row | Compound | activity coefficient (323.15 K) | activity coefficient (333.15 K) | activity coefficient (343.15 K)
24 | CCC[N+](=O)[O-] [1-nitropropane] + CCCCCCCCn1cc[n+](COCCCOC[n+]2ccn(CCCCCCCC)c2C)c1C.N#C[N-]C#N.N#C[N-]C#N | 0.59 ± 0.04 | 0.58 ± 0.04 | 0.58 ± 0.04
25 | ClC(Cl)Cl [trichloromethane] + CCCCCCCCn1cc[n+](COCCCOC[n+]2ccn(CCCCCCCC)c2C)c1C.N#C[N-]C#N.N#C[N-]C#N | 0.24 ± 0.03 | 0.26 ± 0.03 | 0.27 ± 0.03
26 | c1ccsc1 [thiophene] + CCCCCCCCn1cc[n+](COCCC)c1C.N#C[N-]C#N | 0.66 ± 0.05 | 0.66 ± 0.05 | 0.64 ± 0.04
27 | CCC(C)=O [butanone] + CCCOC[n+]1ccc(N(C)C)cc1.O=S(=O)([N-]S(=O)(=O)C(F)(F)F)C(F)(F)F | 0.51 ± 0.04 | 0.49 ± 0.04 | 0.45 ± 0.04
28 | CC1CCCC1 [methylcyclopentane] + CCCOC[n+]1ccn(Cc2ccccc2)c1.N#C[N-]C#N | 15.7 ± 1.1 | 15.2 ± 1 | 13.5 ± 0.92
29 | ClC(Cl)(Cl)Cl [tetrachloromethane] + Cn1cc[n+](COCCCOC[n+]2ccn(C)c2)c1.N#C[N-]C#N.N#C[N-]C#N | 6.68 ± 0.46 | 6.94 ± 0.47 | 7 ± 0.48
30 | CCC(=O)CC [pentan-3-one] + CCCOC[n+]1ccn(Cc2ccccc2)c1.O=S(=O)([N-]S(=O)(=O)C(F)(F)F)C(F)(F)F | 0.43 ± 0.04 | 0.43 ± 0.04 | 0.44 ± 0.04
31 | CCC(=O)CC [pentan-3-one] + CCCOC[n+]1ccn(Cc2ccccc2)c1.F[B-](F)(F)F | 1.73 ± 0.12 | 1.74 ± 0.12 | 1.75 ± 0.12
32 | c1ccncc1 [pyridine] + N#C[N-]C#N.N#C[N-]C#N.c1ccc(Cn2cc[n+](COCCCOC[n+]3ccn(Cc4ccccc4)c3)c2)cc1 | 1.1 ± 0.07 | 1.1 ± 0.07 | 1.12 ± 0.07
33 | ClCCl [dichloromethane] + CCCOC[n+]1ccn(C)c1.F[B-](F)(F)F | 1.07 ± 0.07 | 1.16 ± 0.07 | 1.19 ± 0.08
34 | C1COCCO1 [1,4-dioxane] + Cn1cc[n+](COCCCOC[n+]2ccn(C)c2)c1.N#C[N-]C#N.N#C[N-]C#N | 1.09 ± 0.07 | 1.11 ± 0.07 | 1.13 ± 0.07
35 | CC#N [acetonitrile] + CCCCCCCCn1cc[n+](COCCCOC[n+]2ccn(CCCCCCCC)c2C)c1C.N#C[N-]C#N.N#C[N-]C#N | 0.46 ± 0.04 | 0.46 ± 0.04 | 0.45 ± 0.04
36 | Cc1ccc(C)cc1 [1,4-dimethylbenzene] + CCCCCCCCn1cc[n+](COCCC)c1C.O=S(=O)([N-]S(=O)(=O)C(F)(F)F)C(F)(F)F | 1.02 ± 0.06 | 1.01 ± 0.06 | 1 ± 0.06
37 | CCCCCCCCCC [decane] + Cn1cc[n+](COCCCOC[n+]2ccn(C)c2)c1.O=S(=O)([N-]S(=O)(=O)C(F)(F)F)C(F)(F)F.O=S(=O)([N-]S(=O)(=O)C(F)(F)F)C(F)(F)F | 141 ± 9.7 | 132 ± 9 | 109 ± 7.5
38 | CCC(=O)CC [pentan-3-one] + CN(C)c1cc[n+](COCCCOC[n+]2ccc(N(C)C)cc2)cc1.O=S(=O)([N-]S(=O)(=O)C(F)(F)F)C(F)(F)F.O=S(=O)([N-]S(=O)(=O)C(F)(F)F)C(F)(F)F | 0.67 ± 0.05 | 0.69 ± 0.05 | 0.7 ± 0.05
39 | CC#N [acetonitrile] + CCCOC[n+]1ccn(C)c1.O=S(=O)([N-]S(=O)(=O)C(F)(F)F)C(F)(F)F | 0.46 ± 0.04 | 0.46 ± 0.04 | 0.46 ± 0.04
40 | CCC(C)CC [3-methylpentane] + CCCCCCCCn1cc[n+](COCCC)c1C.O=S(=O)([N-]S(=O)(=O)C(F)(F)F)C(F)(F)F | 3.57 ± 0.24 | 3.42 ± 0.23 | 3.05 ± 0.21
41 | CCCCCCCCCC [decane] + CCCOC[n+]1ccn(C)c1.N#C[N-]C#N | 372 ± 26 | 356 ± 24 | 287 ± 20
42 | CCCC(C)=O [pentan-2-one] + CCCOC[n+]1ccn(Cc2ccccc2)c1.N#C[N-]C#N | 1.45 ± 0.1 | 1.51 ± 0.1 | 1.51 ± 0.1
43 | CCCCO [butan-1-ol] + CCCOC[n+]1ccn(C)c1.O=S(=O)([N-]S(=O)(=O)C(F)(F)F)C(F)(F)F | 2.37 ± 0.16 | 2.09 ± 0.14 | 1.89 ± 0.13
44 | c1ccsc1 [thiophene] + CCCOC[n+]1ccn(Cc2ccccc2)c1.F[B-](F)(F)F | 1.33 ± 0.09 | 1.27 ± 0.08 | 1.25 ± 0.08
45 | CCCCCCCCCCCC [dodecane] + CCCOC[n+]1ccn(Cc2ccccc2)c1.F[B-](F)(F)F | 483 ± 33 | 421 ± 29 | 370 ± 25
46 | CC(C)O [propan-2-ol] + Cn1cc[n+](COCCCOC[n+]2ccn(C)c2)c1.O=S(=O)([N-]S(=O)(=O)C(F)(F)F)C(F)(F)F.O=S(=O)([N-]S(=O)(=O)C(F)(F)F)C(F)(F)F | 1.31 ± 0.09 | 1.22 ± 0.08 | 1.05 ± 0.07
